Where two headings read alike, the source gives them in different places. Numbered stars: 1 amine (or outer) side, 2 acyl side, 3 side chain; on linkers, the order of the positions; unused ones are H or OH. Bridge positions count the residues as written; N and C are the ends. Square brackets hold non-standard residues; d marks the D form. Peptide text beside a SMILES is read from it. * marks the point of attachment. Phe(2,4-Cl2) = N[C@@H](Cc1ccc(Cl)cc1Cl)C(=O)O; Bip = N[C@@H](Cc1ccc(-c2ccccc2)cc1)C(=O)O; Phe(4-NH2) = Nc1ccc(C[C@H](N)C(=O)O)cc1; d2Thi = N[C@H](Cc1cccs1)C(=O)O; Suc = O=C(CCC(=O)[*:2])[*:1]; Boc = CC(C)(C)OC(=O)*
Key:
[1] = target: T1, TNFα / TNFα receptor (TNFα R1/Fc) (Homo sapiens, UniProt P01375); experiment: Inhibition of binding of TNFα to the TNFα receptor (plate ELISA competition); conditions: Table 2
T1 construct: purchased R&D Systems
Summary of the method: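 Compound dilutions were preincubated 30 min at RT with 8.33 nM TNFα R1/Fc in PBST with 2% DMSO, then added to wells coated with 15 nM TNFα for 30 min. Bound receptor was detected with HRP anti-human Fc and TMB, read as A450.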

[2] = test system: TNF-α (degradation of IkB in HeLa cells or A431 cells); experiment: Human cell-based assay: inhibition of TNF-α induced degradation of IkB; conditions: for inhibition at 5 µM: read-out: Inhibition at Various Compound Concentrations, 5 μM; for inhibition at 10 µM: read-out: Inhibition at Various Compound Concentrations, 10 μM
Protocol: We used a human cell-based assay to determine the TNF-α antagonistic activity of the compounds of this invention based upon the ability of the compounds to inhibit the degradation of IkB in those cells. The assay was performed on either HeLa cells or A431 cells.
On Day 1, wells of a 24-well tissue culture plate were seeded with cells that had been harvested from cultures in T-75 flasks by standard trypsin/EDTA treatment. The harvested cells were suspended in EMEM/10% FBS/P/S (100,000 HeLa cells/mL or 200,000 A431 cells/mL) and 1 mL aliquots were placed into each well. The cells were incubated overnight at 37° C. in a humidified CO2 incubator. On day 2, the cells were approximately 95% confluent.
Test and control compounds were diluted to a 1 mM solution by dilution in DMSO. The assay was run in Costar tubes. Into each tube was placed 2.5 or 5.0 μL of test compound (for testing 5 μM and 10 μM concentrations, respectively), 2.5 μL of 100× TNF-α solution (200 ng/mL TNF-α in EMEM containing 1μg/mL cycloheximide) and, for those tubes containing 2.5 μL of compound, an additional 2.5 μL of DMSO. To each tube was then added 0.5 mL of EMEM containing 1μg/mL cycloheximide. Negative control tubes contained either a) no compound, or b) no TNF-α. Tubes were then incubated for 30 minutes at room temperature.
Once incubation had begun, the media was aspirated from the cells in the 24-well plates. Sufficient EMEM/10% FBS/P/S containing 1 ug/mL cycloheximide was then added to cover the cells (approximately 3 mL) and the cells were retuned to the 37° C. humidified CO2 incubator until compound incubation was completed. The media was then aspirated from the cells, 0.2 mL of the compound solution was added and the cells re-incubated at 37° C. for 30 minutes. The plates were then placed on ice, the compound solution was aspirated from each well, and the cells washed once with 1 mL of cold PBS. Cells were then fixed with 500 μL of 3.7% formaldehyde in PBS (“fix solution”) for 20 minutes at room temperature. The fix solution was decanted and the cells permeabilized by 4× washing with 500 uL PBS/0.1% Triton X-100. After the final permeabilization wash, the cells were treated with 500 uL of Odyssey blocking buffer (OBB) and incubated at room temperature with shaking for 90 minutes.
The OBB was decanted and then to each well was then added 125 μL each of mouse anti-IkB CST#4814 (diluted 1:200 in OBB) and rabbit anti-beta-tubulin CST#2146 (diluted 1:200 in OBB). Plates were sealed with parafin and incubated overnight at room temperature with shaking.
On day 3, the antibody solution was removed from the cells and the cells were washed 5× with 0.5 mL PBST for five minutes each on a shaker. To each well was then aded 125 μL of a secondary antibody solution containing goat anti-mouse IgG-IRDye 800 and goat anti-rabbit IgG-IRDye (each diluted 1:500 in OBB+0.2% Tween 20). The plates were covered with aluminum foil and incubated for 1 hour at room temperature with shaking. The secondary antibody solution was removed and the cells washed 3× with 0.5 mL PBST for five minutes each on a shaker. Cells were then scanned by LICOR with the following settings: 700 intensity=6.0, 800 intensity=6.5; microplate2 settings with 3.0 mm offset; 169 resolution. LICOR values were fitted to an equation for a sigmoidal curve and IC50 values calculated from the fitted parameters. […] Blank cells indicate that the compound was not tested at that concentration. Certain compounds that were tested more than once and the values reflect the average of the multiple tests.

[3] = Activity (IC50, inhibition of TNFα binding to TNFα R1/Fc)
[4] = read-out: Activity (IC50, inhibition of TNFα binding to TNFα R1/Fc)
[5] = 5 μM compound, HeLa or A431 cells
[6] = 10 μM compound, HeLa or A431 cells

T1 sequence (P01375 77-233 limits assumed, species assumed): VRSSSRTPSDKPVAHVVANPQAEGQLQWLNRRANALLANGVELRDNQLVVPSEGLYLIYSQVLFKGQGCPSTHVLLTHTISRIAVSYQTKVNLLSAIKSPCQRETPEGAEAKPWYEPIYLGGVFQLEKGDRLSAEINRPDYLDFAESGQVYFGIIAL

SMILES | IC50 [1, 3] [µM] | inhibition at 5 µM [2] [%] | inhibition at 10 µM [2] [%] | IC50 [1, 4] [µM] | inhibition at 5 µM [2, 5] [%] | inhibition at 10 µM [2, 6] [%] | inhibition at 25 µM ([2]; 25 μM compound, HeLa or A431 cells, read-out: Inhibition at Various Compound Concentrations, 25 μM) [%]
O=C1COc2ccc(cc2)C[C@@H](C(=O)NC2(C(=O)O)CC2)NC(=O)[C@@H](CCc2ccccc2)NC(=O)[C@H](Cc2ccc(-c3ccccc3)cc2)NC(=O)[C@@H](Cc2cccs2)N1 [Compound 299] | < 10 | < 10 | < 10 |  |  |  | 
O=C1COc2ccc(cc2)C[C@@H](C(=O)N[C@@H](Cc2ccc(O)cc2)C(=O)O)NC(=O)[C@@H](CCc2ccccc2)NC(=O)[C@H](Cc2ccc(-c3ccccc3)cc2)NC(=O)[C@@H](Cc2cccs2)N1 [Compound 300] | < 10 |  | 10 to 50 |  |  |  | 
O=C1N[C@H](CCc2ccccc2)C(=O)N[C@@H](C(=O)O)Cc2ccc(cc2)NC(=O)[C@H](O)[C@@H](O)C(=O)N[C@H](Cc2ccccc2)C(=O)N[C@H]1Cc1ccc(Cl)cc1Cl [Compound 239] |  |  |  | < 10 | < 10 | < 10 | 
C[C@@H](NC(=O)[C@@H]1Cc2ccc(cc2)OCC(=O)N[C@@H](Cc2cccs2)C(=O)N[C@@H](Cc2ccc(-c3ccccc3)cc2)C(=O)N[C@@H](Cc2ccccc2)C(=O)N1)C(=O)O [Compound 341] |  |  |  | < 10 |  | < 10 | 
O=C(O)CN(Cc1ccccc1)C(=O)[C@@H]1Cc2ccc(cc2)OCC(=O)N[C@H](Cc2cccs2)C(=O)N[C@@H](Cc2ccc(-c3ccccc3)cc2)C(=O)N[C@H](CCc2ccccc2)C(=O)N1 [Compound 323] | < 10 | 10 to 50 | 10 to 50 |  |  |  | 
O=C1CCC(=O)N[C@H](Cc2cccs2)C(=O)N[C@@H](Cc2ccc(Cl)cc2Cl)C(=O)N[C@H](Cc2ccccc2)C(=O)N[C@H](C(=O)O)Cc2ccc(cc2)N1 [Compound 82] ([d2Thi][Phe(2,4-Cl2)][dF][Phe(4-NH2)]-OH; linker N-4 via Suc) |  |  |  | 10 to 30 | < 10 | < 10 | 
O=C(O)CNC(=O)[C@@H]1Cc2ccc(cc2)OCC(=O)N[C@H](Cc2cccs2)C(=O)N[C@@H](Cc2ccc(-c3ccccc3)cc2)C(=O)N[C@H](CCc2ccccc2)C(=O)N1 [Compound 321] |  |  |  | < 10 | < 10 | 10 to 50 | 
C[C@@H](NC(=O)[C@@H]1Cc2ccc(cc2)OCC(=O)N[C@H](Cc2cccs2)C(=O)N[C@@H](Cc2ccc(-c3ccccc3)cc2)C(=O)N[C@H](CCc2ccccc2)C(=O)N1)C(=O)O [Compound 305] |  |  |  | < 10 |  | < 10 | 
CC(C)(C)OC(=O)NCCCC[C@H](NC(=O)[C@@H]1Cc2ccc(cc2)NC(=O)CCC(=O)N[C@H](Cc2cccs2)C(=O)N[C@@H](Cc2ccc(-c3ccccc3)cc2)C(=O)N[C@H](Cc2ccccc2)C(=O)N1)C(=O)O [Compound 35] ([d2Thi][Bip][dF][Phe(4-NH2)]K(Boc)-OH; linker N-4 via Suc) |  |  |  | 10 to 30 |  |  | 50 to 80
NCCCC(=O)N[C@@H]1CC(=O)N[C@H](Cc2cccs2)C(=O)N[C@@H](Cc2ccc(-c3ccccc3)cc2)C(=O)N[C@H](Cc2ccccc2)C(=O)N[C@H](C(=O)O)Cc2ccc(cc2)NC1=O [Compound 382] |  |  |  | < 10 | 10 to 50 | < 10 | 
O=C(N[C@H](Cc1ccccc1)C(=O)O)[C@@H]1Cc2ccc(cc2)NC(=O)[C@H](O)[C@@H](O)C(=O)N[C@H](Cc2cccs2)C(=O)N[C@@H](Cc2ccc(-c3ccccc3)cc2)C(=O)N[C@H](Cc2ccccc2)C(=O)N1 [Compound 16] |  |  |  | < 10 |  | < 10 | 

Source: patent publication US8338565B2, “Macrocyclic compounds for inhibition of tumor necrosis factor alpha” (Ensemble Therapeutics Corporation, priority 2008, dated 2012)
